Target: T1, EcCmoA (Escherichia coli, UniProt P76290)
T1 construct: gene cmoA; E. coli BL21(DE3)
Assay: HPLC / LC-MS of Cx-SAM formation
Type: biochemical
Details: co-substrate prephenate; sodium phosphate pH 6.8; 37 C

T1 sequence (P76290 whole entry): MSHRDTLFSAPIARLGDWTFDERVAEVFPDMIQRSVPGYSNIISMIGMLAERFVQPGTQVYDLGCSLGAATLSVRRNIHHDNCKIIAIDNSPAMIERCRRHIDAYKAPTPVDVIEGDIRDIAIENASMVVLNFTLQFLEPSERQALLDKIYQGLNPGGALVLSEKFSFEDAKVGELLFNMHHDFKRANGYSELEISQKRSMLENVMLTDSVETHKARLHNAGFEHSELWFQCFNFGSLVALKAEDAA

C[S+](CC[C@H](N)C(=O)O)C[C@H]1O[C@@H](n2cnc3c(N)ncnc32)[C@H](O)[C@@H]1O (stereo partly shown) [SAM]
HPLC / LC-MS of Cx-SAM formation: Incubation with either SpCmoA or EcCmoA led to a decrease in the SAM peak
